Experimental data reported in US20250084087A1, “BICYCLIC HETEROCYCLES AS MRGPRX2 ANTAGONISTS” (Incyte Corporation, priority 2023, published 2025).

How the values were obtained:
Format in all cases: cell-based
MRGPRX2 [1] = target: T1, MRGPRX2 (Homo sapiens, UniProt Q96LB1); test: MRGPRX2 IP1 HTRF assay; parameters: host or cells: CHO-K1; details: CHO-K1 cells stably expressing human MRGPRX2; IP1 accumulation; agonist Cortistatin 14 1 μM
T1 sequence (Q96LB1 1-330): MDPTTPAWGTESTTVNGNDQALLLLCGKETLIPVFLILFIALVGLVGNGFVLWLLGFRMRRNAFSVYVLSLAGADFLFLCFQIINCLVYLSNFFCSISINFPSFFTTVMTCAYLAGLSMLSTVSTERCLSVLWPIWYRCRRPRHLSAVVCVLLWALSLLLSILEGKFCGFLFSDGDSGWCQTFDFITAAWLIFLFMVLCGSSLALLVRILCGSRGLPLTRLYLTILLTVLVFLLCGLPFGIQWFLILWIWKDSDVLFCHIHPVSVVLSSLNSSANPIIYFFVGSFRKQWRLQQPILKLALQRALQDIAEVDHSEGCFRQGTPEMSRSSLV
Method in brief: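 CHO-K1 cells stably expressing human MRGPRX2, preincubated with compound 1 h at 37 °C, then stimulated with 1 μM Cortistatin 14 for 1 h. IP1 measured by HTRF against standard curve, normalized to DMSO and reference antagonist controls; IC50 from 3- or 4-parameter Hill fit.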

MRGPRX2 [2] = target: T1, MRGPRX2; test: MRGPRX2 FLIPR calcium mobilization assay; parameters: host or cells: CHO-K1; details: CHO-K1 cells stably expressing human MRGPRX2; Ca2+ release; agonist Cortistatin-14 at EC80
Experimental: Example A. MRGPRX2 FLIPR Calcium Mobilization Assay
Chinese hamster ovary (CHO-K1) cells stably expressing human MRGPRX2 were purchased from Genescript (Piscataway, NJ). The cells were maintained in culture medium (Ham's F-12K) containing 10% (v/v) FBS, 200 μg/mL Zeocin, 100 units/mL penicillin G and 100 μg/mL streptomycin (Life Technologies, Carlsbad, CA). For the assay, the cells were harvested and resuspended with culture medium without Zeocin before plating at 8000 cells per well in 20 μL in 384-well black clear bottom cell culture plates (VWR, Radnor, PA). After 24 hour culture at 37° C. and 5% CO2, the cells were loaded with 20 μL/well of calcium dye (FLIPR Calcium 6 Assay Kit, Molecular Devices, San Jose, CA) diluted in loading buffer (1× Hank's Balanced Salt Solution (HBSS), 5 mM probenecid, 20 mM 4-(2-hydroxyethyl)-1-piperazineethanesulfonic acid (HEPES), pH 7.4, VWR, Radnor, PA) followed with 45 min. incubation at 37° C. and 40 min. at r.t. in the dark. Cells were then treated with the addition of 10 uL/well test compounds with a range of increasing concentrations diluted in the assay buffer (1×HBSS, 20 mM HEPES, pH 7.4, VWR, Radnor, PA) with FLIPR Penta (Molecular Devices. San Jose, CA) and incubated for 30 min. at r.t. Ca^2+ release was measured with FLIPR Penta with 10 seconds basal fluorescence measurement, then 12.5 μL of 5× agonist Cortistatin-14 (Tocris, Minneapolis, MN) at final concentration corresponding to the EC80 were added followed with continued fluorescence signal monitoring for an additional 110 seconds. The base line adjusted (median of first 10s base line) max value of the Relative Fluorescence Unit (RFU) was plotted against compound concentrations. Wells with no compound were served as the positive controls, and wells with high concentration of reference antagonist were used as negative controls. IC50 curves were globally fitted with 3- or 4-parameter Hill equation in a Genedata Screener (Genedata Basel, Switzerland).

MRGPRX2 [3] = target: T1, MRGPRX2; test: MRGPRX2 β-Arrestin recruitment assay (PathHunter); parameters: host or cells: CHO-K1 (PathHunter); details: PathHunter CHO-K1 MRGPRX2 β-Arrestin cell line; agonist Cortistatin 14 0.25 μM
Method in brief: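 CHO-K1 PathHunter cells co-expressing ProLink-tagged MRGPRX2 and enzyme-acceptor-tagged β-arrestin were preincubated with compound 1 h at 37° C., then stimulated with cortistatin-14 (0.25 μM final) for 90 min. Enzyme-complementation luminescence read after 1 h detection; data normalized to DMSO and reference antagonist, IC50 from 3- or 4-parameter Hill fit.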

| SMILES | IC50 (MRGPRX2 [1]) [µM] | IC50 (MRGPRX2 [2]) [µM] | IC50 (MRGPRX2 [3]) [µM] |
| --- | --- | --- | --- |
| NC(=O)N1CCC(CNc2cc(C(F)(F)F)nc3cc(C(F)(F)F)nn23)(c2ccccc2)C1 (stereo not drawn) [Example 4, 3-(((2,5-Bis(trifluoromethyl)pyrazolo[1,5-a]pyrimidin-7-yl)amino)methyl)-3-phenylpyrrolidine-1-carboxamide] | 0.0001 to 0.1 | 0.0001 to 0.1 | 0.0001 to 0.1 |
| CNC(=O)N1CCC(CNc2cccc3nc(C(F)(F)F)cn23)(c2ccccc2)CC1 [Example 21, N-Methyl-4-phenyl-4-(((2-(trifluoromethyl)imidazo[1,2-a]pyridin-5-yl)amino)methyl)piperidine-1-carboxamide] | 0.0001 to 0.1 | 0.0001 to 0.1 | 0.0001 to 0.1 |
| NC(=O)N1CC(CNc2cccc3nc(C(F)(F)F)nn23)(c2ccc(F)cc2)C1 [Example 33, 3-(4-Fluorophenyl)-3-(((2-(trifluoromethyl)-[1,2,4]triazolo[1,5-a]pyridin-5-yl)amino)methyl)azetidine-1-carboxamide] | 0.0001 to 0.1 | 0.0001 to 0.1 | 0.0001 to 0.1 |
| CNC(=O)N1CCC(CNc2cc(C)nc3nc(C(F)(F)F)nn23)(c2ccccc2)CC1 [Example 18, N-Methyl-4-(((5-methyl-2-(trifluoromethyl)-[1,2,4]triazolo[1,5-a]pyrimidin-7-yl)amino)methyl)-4-phenylpiperidine-1-carboxamide] | 0.0001 to 0.1 | 0.0001 to 0.1 | 0.0001 to 0.1 |
| NS(=O)(=O)N1CC(CNc2cc(C(F)(F)F)nc3cc(C(F)(F)F)nn23)(n2cc(F)cn2)C1 [Example 9, 3-(((2,5-Bis(trifluoromethyl)pyrazolo[1,5-a]pyrimidin-7-yl)amino)methyl)-3-(4-fluoro-1H-pyrazol-1-yl)azetidine-1-sulfonamide] | 0.0001 to 0.1 | 0.0001 to 0.1 | 0.0001 to 0.1 |
| CN1CCN(C2CC(CNc3cc(C(F)(F)F)nc4cc(Br)nn34)(c3ccccc3)C2)CC1 (stereo not drawn) [Example 43, 2-Bromo-N-((3-(4-methylpiperazin-1-yl)-1-phenylcyclobutyl)methyl)-5-(trifluoromethyl)pyrazolo[1,5-a]pyrimidin-7-amine] | 0.0001 to 0.1 | 0.0001 to 0.1 | 0.0001 to 0.1 |
| OCCNC1CC(CNc2cc(C(F)(F)F)nc3cc(Br)nn23)(c2ccccc2)C1 (stereo not drawn) [Example 44, 2-((3-(((2-Bromo-5-(trifluoromethyl)pyrazolo[1,5-a]pyrimidin-7-yl)amino)methyl)-3-phenylcyclobutyl)amino)ethan-1-ol] | 0.0001 to 0.1 | 0.0001 to 0.1 | 0.0001 to 0.1 |
| NS(=O)(=O)N1CC(CNc2cc(C(F)(F)F)nc3cc(C(F)(F)F)nn23)(c2ccc(F)cc2)C1 [Example 30, 3-(((2,5-Bis(trifluoromethyl)pyrazolo[1,5-a]pyrimidin-7-yl)amino)methyl)-3-(4-fluorophenyl)azetidine-1-sulfonamide] | 0.0001 to 0.1 | 0.0001 to 0.1 | 0.0001 to 0.1 |
| COc1ccc(C2(CNc3cccc4nc(C(F)(F)F)cn34)CCOCC2)cc1 [Example 39, N-((4-(4-Methoxyphenyl)tetrahydro-2H-pyran-4-yl)methyl)-2-(trifluoromethyl)imidazo[1,2-a]pyridin-5-amine] | 0.0001 to 0.1 | 0.0001 to 0.1 | 0.0001 to 0.1 |
| NC(=O)N1CC(CNc2cc(Cl)nc3cc(C(F)(F)F)nn23)(c2ccc(F)cc2)C1 [Example 66, 3-(((5-Chloro-2-(trifluoromethyl)pyrazolo[1,5-a]pyrimidin-7-yl)amino)methyl)-3-(4-fluorophenyl)azetidine-1-carboxamide] | 0.0001 to 0.1 | 0.0001 to 0.1 | 0.0001 to 0.1 |
| CCc1cc(NCC2(c3ccc(F)cc3)CN(C(N)=O)C2)n2nc(C(F)(F)F)cc2n1 [Example 68, 3-(((5-Ethyl-2-(trifluoromethyl)pyrazolo[1,5-a]pyrimidin-7-yl)amino)methyl)-3-(4-fluorophenyl)azetidine-1-carboxamide] | 0.0001 to 0.1 | 0.0001 to 0.1 | 0.0001 to 0.1 |
| NC(=O)N1CC(CNc2cc(C(F)(F)F)nc3cc(C(F)(F)F)nn23)(c2ccc(F)cc2)C1 [Example 31, 3-(((2,5-Bis(trifluoromethyl)pyrazolo[1,5-a]pyrimidin-7-yl)amino)methyl)-3-(4-fluorophenyl)azetidine-1-carboxamide] | 0.0001 to 0.1 | 0.0001 to 0.1 | 0.0001 to 0.1 |
| O=C(N[C@H]1CC[C@H](O)CC1)N1CC(CNc2cc(C(F)(F)F)nc3cc(C(F)(F)F)nn23)(c2ccc(F)cc2)C1 [Example 48, 3-(((2,5-Bis(trifluoromethyl)pyrazolo[1,5-a]pyrimidin-7-yl)amino)methyl)-3-(4-fluorophenyl)-N-((1r,4r)-4-hydroxycyclohexyl)azetidine-1-carboxamide] | 0.0001 to 0.1 | 0.0001 to 0.1 | 0.0001 to 0.1 |
| O=C(N[C@H]1C[C@H](O)C1)N1CC(CNc2cc(C(F)(F)F)nc3cc(C(F)(F)F)nn23)(c2ccc(F)cc2)C1 [Example 49, 3-(((2,5-Bis(trifluoromethyl)pyrazolo[1,5-a]pyrimidin-7-yl)amino)methyl)-3-(4-fluorophenyl)-N-((1r,3r)-3-hydroxycyclobutyl)azetidine-1-carboxamide] | 0.0001 to 0.1 | 0.0001 to 0.1 | 0.0001 to 0.1 |
| NS(=O)(=O)N1CC[C@](CNc2cc(C(F)(F)F)nc3cc(C(F)(F)F)nn23)(c2ccccc2)C1 (stereo in doubt) [Example 3, 3-(((2,5-Bis(trifluoromethyl)pyrazolo[1,5-a]pyrimidin-7-yl)amino)methyl)-3-phenylpyrrolidine-1-sulfonamide] | 0.0001 to 0.1 | 0.0001 to 0.1 | 0.1 to 1 |
| Cc1cc(NCC2(c3ccc(F)cc3)CN(C(N)=O)C2)n2nc(C(F)(F)F)cc2n1 [Example 67, 3-(4-Fluorophenyl)-3-(((5-methyl-2-(trifluoromethyl)pyrazolo[1,5-a]pyrimidin-7-yl)amino)methyl)azetidine-1-carboxamide] | 0.0001 to 0.1 | 0.0001 to 0.1 | 0.0001 to 0.1 |
| O=C(N[C@H]1CC[C@H](O)CC1)N1CC(CNc2cc(C(F)(F)F)nc3cc(Br)nn23)(c2ccc(F)cc2)C1 [Example 96, 3-(((2-Bromo-5-(trifluoromethyl)pyrazolo[1,5-a]pyrimidin-7-yl)amino)methyl)-3-(4-fluorophenyl)-N-((1r,4r)-4-hydroxycyclohexyl)azetidine-1-carboxamide] | 0.0001 to 0.1 | 0.0001 to 0.1 | 0.0001 to 0.1 |
| Fc1ccc(C2(CNc3cccc4nc(C(F)(F)F)cn34)CCC2)cc1 [Example 36, N-((1-(4-Fluorophenyl)cyclobutyl)methyl)-2-(trifluoromethyl)imidazo[1,2-a]pyridin-5-amine] | 0.0001 to 0.1 | 0.0001 to 0.1 | 0.0001 to 0.1 |
| [2H]C([2H])([2H])NC(=O)N1CC(CNc2cc(C(F)(F)F)nc3cc(C(F)F)nn23)(c2ccc(F)cc2)C1 [Example 62, 3-(((2-(Difluoromethyl)-5-(trifluoromethyl)pyrazolo[1,5-a]pyrimidin-7-yl)amino)methyl)-3-(4-fluorophenyl)-N-(methyl-d3)azetidine-1-carboxamide] | 0.0001 to 0.1 | 0.0001 to 0.1 | 0.0001 to 0.1 |
| NC(=O)N1CC(CNc2cc(C(F)(F)F)nc3cc(Br)nn23)(c2ccc(Cl)cc2)C1 [Example 58, 3-(((2-Bromo-5-(trifluoromethyl)pyrazolo[1,5-a]pyrimidin-7-yl)amino)methyl)-3-(4-chlorophenyl)azetidine-1-carboxamide] | 0.0001 to 0.1 | 0.0001 to 0.1 | 0.0001 to 0.1 |
